The source made the active and inactive calls. No cut-off for these calls is given here.
How the values were obtained:
Rattus norvegicus [1] = species: Rattus norvegicus; assay: Hypolipidemic activity was expressed as percent decrease in serum cholesterol in Sprague-Dawley rats; format: functional; set-up: concentration or dose not given beside the values
Rattus norvegicus [2] = species: Rattus norvegicus; assay: Hypolipidemic activity was expressed as percent decrease in triglycerides in Sprague-Dawley rats; format: functional; set-up: concentration or dose not given beside the values
Rattus norvegicus [3] = species: Rattus norvegicus; assay: The ability to inhibit platelet aggregation was tested; <10; format: functional
Rattus norvegicus [4] = species: Rattus norvegicus; assay: Ability to inhibit collagen -induced platelet aggregation in male SD rats; <10; format: functional; set-up: concentration or dose not given beside the values
Rattus norvegicus [5] = species: Rattus norvegicus; assay: Hypolipidemic activity was expressed as percent decrease in serum cholesterol in Sprague-Dawley rats; No evaluation; format: functional, organism-based
Rattus norvegicus [6] = species: Rattus norvegicus; assay: Hypolipidemic activity was expressed as percent decrease in triglycerides; No evaluation; format: functional, organism-based
Rattus norvegicus [7] = species: Rattus norvegicus; assay: Ability to inhibit collagen -induced platelet aggregation in male SD rats; No evaluation; format: functional, organism-based
Rattus norvegicus [8] = species: Rattus norvegicus; assay: Inhibition of collagen-induced platelet aggregation in male SD rats; Inhibition >= 10% but < aspirin (34-96%).; format: functional
Rattus norvegicus [9] = species: Rattus norvegicus; assay: Hypolipidemic activity was expressed as percent decrease in triglycerides; format: functional; set-up: concentration or dose not given beside the values
Rattus norvegicus [10] = species: Rattus norvegicus; assay: Hypolipidemic activity was expressed as percent decrease in serum cholesterol; format: functional; set-up: concentration or dose not given beside the values
Rattus norvegicus [11] = species: Rattus norvegicus; assay: The ability to inhibit platelet aggregation was tested; Inhibition >= 10% but < aspirin (34-96%); format: functional
Rattus norvegicus [12] = species: Rattus norvegicus; assay: Ability to inhibit collagen -induced platelet aggregation in male SD rats; Inhibition >= aspirin (34-96%); format: functional, organism-based
Rattus norvegicus [13] = species: Rattus norvegicus; assay: Hypolipidemic activity was expressed as percent decrease in triglycerides; NE means no evaluation; format: functional, organism-based
Rattus norvegicus [14] = species: Rattus norvegicus; assay: Hypolipidemic activity was expressed as percent decrease in serum cholesterol; NE means no evaluation; format: functional, organism-based
Rattus norvegicus [15] = species: Rattus norvegicus; assay: Ability to inhibit collagen -induced platelet aggregation in male SD rats; NE means no evaluation; format: functional, organism-based

Row | SMILES | Reduction (Rattus norvegicus [1]) [%] | Reduction (Rattus norvegicus [2]) [%] | Inhibition (Rattus norvegicus [8]) | also measured
1 | CC(C(=O)O)c1nc(-c2ccc(Cl)cc2)oc1-c1ccco1 (configuration not stated) | 16 | 41 |  | 
2 | CC(C)(C(=O)O)c1nc(-c2ccc(Cl)cc2)oc1-c1ccco1 | 16 | 54 |  | Inhibition (Rattus norvegicus [3]): <10%
3 | CCOC(=O)Cc1nc(-c2ccc(Cl)cc2)oc1N1CCCC1 | -2 | -20 |  | 
4 | CCOC(=O)Cc1nc(C(C)C)oc1-c1ccco1 | 12 | 21 |  | Inhibition (Rattus norvegicus [4]): <10%
5 | CCOC(=O)Cc1nc(C)oc1-c1ccco1 |  |  |  | Reduction (Rattus norvegicus [5]): No effect; Reduction (Rattus norvegicus [6]): No effect; inhibition (Rattus norvegicus [7]): No effect
6 | O=C(O)Cc1nc(-c2ccc(Cl)c(Cl)c2)oc1-c1ccoc1 | 19 | 60 | >=10% | 
7 | CCCCOC(=O)Cc1nc(-c2ccc(Cl)cc2)oc1-c1ccco1 | 20 | 27 |  | Inhibition (Rattus norvegicus [4]): <10%
8 | CCOC(=O)Cc1nc(-c2ccc(Cl)cc2)oc1-c1ccc(S(=O)(=O)O)o1 | -5 | 23 |  | 
9 | O=C(Cc1nc(-c2ccc(Cl)cc2)oc1-c1ccco1)OCc1cccnc1 | 18 | 42 |  | Inhibition (Rattus norvegicus [4]): <10%
10 | CCOC(=O)Cc1nc(-c2ccc(Cl)cc2)oc1-c1ccc(C=O)o1 |  |  |  | Reduction (Rattus norvegicus [9]): -5%; Reduction (Rattus norvegicus [10]): 9%
11 | Cc1ccc(-c2nc(CC(=O)O)c(-c3ccco3)o2)cc1 | 9 | 29 | >=10% | 
12 | O=C(O)Cc1nc(-c2cccc(C(F)(F)F)c2)oc1-c1ccco1 | 8 | 50 | >=10% | 
13 | CCOC(=O)Cc1nc(C2CCCCC2)oc1-c1ccco1 |  |  |  | Reduction (Rattus norvegicus [5]): No effect; Reduction (Rattus norvegicus [6]): No effect; inhibition (Rattus norvegicus [7]): No effect
14 | CCOC(=O)Cc1nc(-c2ccc(Cl)cc2)oc1-c1ccsc1 | 23 | 39 |  | Inhibition (Rattus norvegicus [11]): >=10%
15 | O=C(O)Cc1nc(-c2ccccc2)oc1-c1ccco1 | 14 | 29 | >=10% | 
16 | CCOC(=O)Cc1nc(-c2ccc(Cl)cc2)sc1-c1ccsc1 | -8 | 21 |  | inhibition (Rattus norvegicus [7]): No effect
17 | O=C(O)Cc1nc(-c2ccc(Cl)cc2)oc1-c1ccco1 | 20 | 35 | >=10% | 
18 | CCOC(=O)Cc1nc(-c2ccc(Cl)cc2)oc1-c1ccco1 | 23 | 35 | >=10% | 
19 | CCCCCCCOC(=O)Cc1nc(-c2ccc(Cl)cc2)oc1-c1ccco1 |  |  |  | Inhibition (Rattus norvegicus [4]): <10%; Reduction (Rattus norvegicus [9]): 42%; Reduction (Rattus norvegicus [10]): 19%
20 | CC(C)c1nc(CC(=O)O)c(-c2ccsc2)o1 | 20 | 16 | >=10% | 
21 | CCOC(=O)Cc1nc(-c2ccc(Cl)cc2)oc1-c1ccc(C(C)=O)o1 | 0 | -14 |  | 
22 | CCOC(=O)C(C)(C)c1nc(-c2ccc(Cl)cc2)oc1-c1ccco1 | -4 | -25 |  | Inhibition (Rattus norvegicus [3]): <10%
23 | CCCCCCCCCCCCOC(=O)Cc1nc(-c2ccc(Cl)cc2)oc1-c1ccco1 |  |  |  | Inhibition (Rattus norvegicus [4]): <10%; Reduction (Rattus norvegicus [9]): 30%; Reduction (Rattus norvegicus [10]): 20%
24 | O=C(O)Cc1nc(-c2ccc(F)cc2)oc1-c1ccco1 |  |  | >=10% | Reduction (Rattus norvegicus [9]): 10%; Reduction (Rattus norvegicus [10]): 20%
25 | CCOC(=O)Cc1nc(-c2ccc(F)cc2)oc1-c1ccco1 | 20 | 24 | >=10% | 
26 | CCOC(=O)Cc1nc(-c2ccc(Cl)c(Cl)c2)oc1-c1ccoc1 | 19 | 49 |  | Inhibition (Rattus norvegicus [4]): <10%

Row | SMILES | Reduction (Rattus norvegicus [1]) [%] | Reduction (Rattus norvegicus [2]) [%] | Inhibition (Rattus norvegicus [8]) | also measured
27 | CCOC(=O)C(CC)c1nc(-c2ccc(Cl)cc2)oc1-c1ccco1 (configuration not stated) | 0 | -10 |  | Inhibition (Rattus norvegicus [3]): <10%
28 | CCOC(=O)Cc1nc(-c2ccc(Cl)cc2)oc1-c1ccc(Br)o1 | 10 | 2 |  | 
29 | CCOC(=O)Cc1nc(-c2ccc(Cl)cc2)sc1-c1ccco1 | -15 | 17 |  | 
30 | CCOC(=O)Cc1nc(-c2cccc(C(F)(F)F)c2)oc1-c1ccco1 | 15 | 0 |  | Inhibition (Rattus norvegicus [4]): <10%
31 | CCOC(=O)Cc1nc(-c2ccccc2)oc1C1CCCO1 (configuration not stated) | 8 | 8 |  | Inhibition (Rattus norvegicus [4]): <10%
32 | CCOC(=O)Cc1nc(-c2ccc(Cl)cc2)oc1-c1ccoc1 | 25 | 42 | >=10% | 
33 | CC(=O)Oc1ccccc1C(=O)O |  |  |  | inhibition (Rattus norvegicus [12]): Active
34 | CCOC(=O)Cc1nc(C(C)C)oc1-c1ccsc1 | 15 | 28 | >=10% | 
35 | O=C(O)Cc1nc(C2CCCCC2)oc1-c1ccco1 | 13 | 18 | >=10% | 
36 | CCOC(=O)Cc1nc(-c2ccccc2)oc1-c1ccoc1 | 17 | 46 | >=10% | 
37 | Cc1nc(CC(=O)O)c(-c2ccco2)o1 | 10 | -20 |  | Inhibition (Rattus norvegicus [4]): <10%
38 | CCOC(=O)C(C)c1nc(-c2ccc(Cl)cc2)oc1-c1ccoc1 (configuration not stated) | 22 | 45 |  | Inhibition (Rattus norvegicus [11]): >=10%
39 | CCCCc1nc(CC(=O)OCC)c(-c2ccco2)o1 | 2 | 16 |  | 
40 | CCOC(=O)Cc1nc(-c2ccc(C)cc2)oc1-c1ccco1 | 9 | -6 | >=10% | 
41 | CCOC(=O)C(C)c1nc(-c2ccc(Cl)cc2)oc1-c1ccco1 (configuration not stated) | 20 | 31 |  | Inhibition (Rattus norvegicus [11]): >=10%
42 | CCCCCCCc1nc(CC(=O)O)c(-c2ccsc2)o1 |  |  | >=10% | Reduction (Rattus norvegicus [9]): 27%; Reduction (Rattus norvegicus [10]): 11%
43 | O=C(O)Cc1nc(-c2ccc(F)cc2)oc1-c1ccoc1 | 23 | 38 | >=10% | 
44 | COc1ccc(-c2nc(CC(=O)O)c(-c3ccco3)o2)cc1 | 5 | -1 | >=10% | 
45 | CCOC(=O)Cc1nc(-c2ccc(OC)cc2)oc1-c1ccco1 | 0 | 4 | >=10% | 
46 | O=C(O)Cc1nc(-c2ccc(Cl)cc2)oc1-c1ccoc1 | 23 | 42 |  | 
47 | CCOC(=O)Cc1nc(-c2ccccc2)oc1-c1ccco1 | 14 | 23 | >=10% | 
48 | CC(C)c1nc(CC(=O)O)c(-c2ccco2)o1 | 5 | 9 |  | Inhibition (Rattus norvegicus [4]): <10%
49 | CCCCCCCc1nc(CC(=O)OCC)c(-c2ccsc2)o1 |  |  |  | Reduction (Rattus norvegicus [13]): No effect; Reduction (Rattus norvegicus [14]): No effect; inhibition (Rattus norvegicus [15]): No effect
50 | CCOC(=O)Cc1nc(-c2ccc(F)cc2)oc1-c1ccoc1 | 30 | 28 | >=10% | 
51 | CCOC(=O)C(C)(C)Oc1ccc(Cl)cc1 [CLOFIBRATE] |  |  |  | Inhibition (Rattus norvegicus [4]): <10%; Reduction (Rattus norvegicus [9]): 30%; Reduction (Rattus norvegicus [10]): 15%
